We go through two compounds from patent US20090221622A1, “TOPOTECAN READY TO USE SOLUTIONS” (EAGLE PHARMACEUTICALS, INC., priority 2008, published 2009).

Read-outs that look alike come from different tables or passages of the source.

For data set [1] the following is noted: aqueous media; cited from earlier work.
A short description of data set [2]: Solubility of 10-HCPT in aqueous and acid media.
How the values of data set [3] were obtained:
[…] […] Quantitatively, 0.01 area % is equivalent to 0.1 μg/mL of 10-HPCT.
The solution was filled into either flint glass vials or polyethylene vials. One portion of the solution was transferred into 5 ml glass vials and another portion was placed into 5 ml PE vials.

The conditions of data set [4]: in vivo; cited from earlier work.

`CC[C@@]1(O)C(=O)OCc2c1cc1n(c2=O)Cc2cc3cc(O)ccc3nc2-1` [Example 10-HCPT, 10-hydroxycamptothecin]: the “Solubility of 10-HCPT” value in data set [1] is listed as “about 2 ng/ml”; in data set [2] (0.01N HCl containing 3% benzyl alcohol), “about 10 μg/mL”; in data set [2] (0.1 N HCl), 6 μg/mL; in data set [2] (0.1 N MSA), “about 6 μg/mL”; in data set [2] (starting value, without benzyl alcohol) it was “about 2 ng/mL”. For the same compound, the “Increase of solubility of 10-HCPT” value in data set [2] (0.01N HCl containing 3% benzyl alcohol versus about 2 ng/mL) is reported as around 5000 fold. Also, the “Saturation solubility of 10 HCPT” value in data set [2] (10% lactic acid) came to 6.4 µg/mL. Also, the “Solubility of 10 HCPT” value in data set [2] (20% lactic acid solution) stood at 15 µg/mL. The “Concentration of 10-HCPT reached before it precipitates” value in data set [2] (formulations prepared in hydrochloric acid, pH 1.5 or less) is recorded as “about 4 μg/mL”.
Take `CC[C@@]1(O)C(=O)OCc2c1cc1n(c2=O)Cc2cc3c(CN(C)C)c(O)ccc3nc2-1` [Topotecan]: the “10-HCPT formed by degradation” value in data set [3] (5 weeks, 1 mg/ml, pH 3.2) worked out at 5.64%; in data set [3] (12 weeks, 1 mg/mL, pH 1), 0.07%; in data set [3] (12 weeks, 1 mg/ml, pH 2) it was 0.6%. Also, in data set [4], the Dose limiting toxicity entry is “neutropenia (bone marrow suppression) and thrombocytopenia”.
